In publication PMC7912614, “(2-Aminobenzothiazole)-Methyl-1,1-Bisphosphonic Acids: Targeting Matrix Metalloproteinase 13 Inhibition to the Bone” (Pharmaceuticals, 2021):

Assays:
MMP-2 = biological target: T1, MMP-2 (Homo sapiens, UniProt P08253); experiment: fluorometric MMP inhibition assay, MMP-2 catalytic domain; assay type: biochemical; conditions: for Ligand Efficiency MMP-2: calculated from IC50 values of Table 2; for IC50: catalytic domain, fluorometric assay, mean ± SEM of at least 3 experiments; for selectivity toward MMP-8 (MMP-2 inhibition versus MMP-8): ratio IC50 MMP-8 / IC50 MMP-2
T1 construct: Catalytic domains of MMP-2, -8, -9, and -13 were obtained from Enzo Life Sciences; purchased Enzo Life Sciences
T1 sequence (P08253 110-446 limits assumed): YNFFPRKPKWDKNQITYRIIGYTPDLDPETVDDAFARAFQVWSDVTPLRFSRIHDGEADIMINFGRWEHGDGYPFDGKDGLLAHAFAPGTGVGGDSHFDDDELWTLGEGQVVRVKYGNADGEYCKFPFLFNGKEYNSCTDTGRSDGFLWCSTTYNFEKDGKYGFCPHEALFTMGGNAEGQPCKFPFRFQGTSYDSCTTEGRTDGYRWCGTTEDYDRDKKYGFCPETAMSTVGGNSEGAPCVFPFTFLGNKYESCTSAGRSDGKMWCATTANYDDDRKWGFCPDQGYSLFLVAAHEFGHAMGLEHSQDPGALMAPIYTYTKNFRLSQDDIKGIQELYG
Protocol: (§1) Catalytic domains of MMP-2, -8, -9, and -13 were obtained from Enzo Life Sciences. 96-well white microtiter plates (Corning, NBS) were used to carry out the assays (in triplicate). The assay measurements were performed by preparing dilutions to six different concentrations (1 nM–100 µM) of each inhibitor in a fluorometric assay buffer (50 mM Tris·HCl pH 7.5, 200 mM NaCl, 1 mM CaCl2, 1 µM ZnCl2, 0.05% Brij-35, and 1% DMSO). Incubation of the enzyme and inhibitor solutions occurred for 15 min at room temperature; fluorogenic substrate solution (OmniMMP® = Mca-Pro-Leu-Gly-Leu-Dpa-Ala-Arg-NH2, Enzo Life Sciences, 2.5 µM final concentration or OmniMMP®RED = TQ3-GABA-Pro-Cha-Abu-Smc-His-Ala-Dab (6′-TAMRA)-Ala-Lys-NH2, Enzo Life Sciences, and 1 µM final concentration) was subsequently added. The assay was incubated for 2–4 h at 37 °C, after which a Perkin–Elmer Victor V3 plate reader was used to measure fluorescence (λex= 340 nm, λem = 405 nm or λex = 545 nm, λem = 572 nm). Included in the assay were control wells lacking any inhibitor. MMP activity was thus determined and expressed in relative fluorescence units (RFU). Percent inhibition was calculated from control wells and IC50 values were determined using GraphPad Prism 5.0 and are shown as mean ± SEM of at least three independent measurements, which were performed in triplicate.

MMP-13 = biological target: T2, MMP-13 (Homo sapiens, UniProt P45452); experiment: fluorometric MMP inhibition assay, MMP-13 catalytic domain; assay type: biochemical; conditions: for Ligand Efficiency MMP-13: calculated from IC50 values of Table 2; for IC50: catalytic domain, fluorometric assay, mean ± SEM of at least 3 experiments; for Selectivity MMP-2/13 / Selectivity MMP-8/13 / Selectivity MMP-9/13: ratio of IC50 values of Table 2
T2 construct: Catalytic domains of MMP-2, -8, -9, and -13 were obtained from Enzo Life Sciences; purchased Enzo Life Sciences
Protocol: as §1

MMP-8 = biological target: T3, MMP-8 (Homo sapiens, UniProt P22894); experiment: fluorometric MMP inhibition assay, MMP-8 catalytic domain; assay type: biochemical; conditions: for Ligand Efficiency MMP-8: calculated from IC50 values of Table 2; for IC50: catalytic domain, fluorometric assay, mean ± SEM of at least 3 experiments
T3 construct: Catalytic domains of MMP-2, -8, -9, and -13 were obtained from Enzo Life Sciences; purchased Enzo Life Sciences
T3 sequence (P22894 100-262 limits assumed): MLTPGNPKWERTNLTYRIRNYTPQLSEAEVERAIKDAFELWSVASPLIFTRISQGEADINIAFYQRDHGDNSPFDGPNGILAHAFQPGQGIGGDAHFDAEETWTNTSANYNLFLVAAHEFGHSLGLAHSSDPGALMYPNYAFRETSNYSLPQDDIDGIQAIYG
Protocol: as §1

MMP-9 = biological target: T4, MMP-9 (Homo sapiens, UniProt P14780); experiment: fluorometric MMP inhibition assay, MMP-9 catalytic domain; assay type: biochemical; conditions: for IC50: catalytic domain, fluorometric assay, mean ± SEM of at least 3 experiments; for Ligand Efficiency MMP-9: calculated from IC50 values of Table 2
T4 construct: Catalytic domains of MMP-2, -8, -9, and -13 were obtained from Enzo Life Sciences; purchased Enzo Life Sciences
T4 sequence (P14780 107-444 limits assumed): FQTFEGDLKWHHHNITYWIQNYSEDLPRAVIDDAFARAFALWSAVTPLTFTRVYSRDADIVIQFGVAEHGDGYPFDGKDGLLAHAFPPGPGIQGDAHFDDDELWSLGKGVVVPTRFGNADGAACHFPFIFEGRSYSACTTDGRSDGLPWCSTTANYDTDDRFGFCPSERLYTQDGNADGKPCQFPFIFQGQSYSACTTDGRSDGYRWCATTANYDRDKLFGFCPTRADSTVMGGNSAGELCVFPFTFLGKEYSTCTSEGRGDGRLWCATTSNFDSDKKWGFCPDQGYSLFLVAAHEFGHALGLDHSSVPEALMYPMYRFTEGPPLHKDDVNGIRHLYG
Protocol: as §1

SMILES	Ligand Efficiency MMP-2 (MMP-2)	IC50 (MMP-2) [µM]	Ligand Efficiency MMP-13 (MMP-13)	IC50 (MMP-13) [µM]	Selectivity MMP-2/13 (MMP-13)	Selectivity MMP-8/13 (MMP-13)	Selectivity MMP-9/13 (MMP-13)	Ligand Efficiency MMP-8 (MMP-8)	IC50 (MMP-8) [µM]	IC50 (MMP-9) [µM]	melting point [°C]	Ligand Efficiency MMP-9 (MMP-9)	selectivity toward MMP-8 (MMP-2 inhibition versus MMP-8) (MMP-2)
O=P(O)(O)C(Nc1nc2ccccc2s1)P(=O)(O)O [Compound 1, (Benzo[d]thiazol-2-amino)methyl-1,1-bisphosphonic acid]	0.36	12.7 ± 0.8	0.38	6.5 ± 1.2	1.95	12.97	>15.4	0.30	84.3 ± 2.1	> 100	–	–	–
O=P(O)(O)C(Nc1nc2ccc(F)cc2s1)P(=O)(O)O [Compound 2, (6-fluorobenzo[d]thiazol-2-amino)methyl-1,1-bisphosphonic acid]	0.35	9 ± 0.9	0.37	4.25 ± 0.35	2.12	7.55	6.24	0.31	32.1 ± 1.9	26.5 ± 2.7	> 250	0.31	–
O=P(O)(O)C(Nc1nc2ccc(Cl)cc2s1)P(=O)(O)O [Compound 3, (6-chlorobenzo[d]thiazol-2-amino)methyl-1,1-bisphosphonic acid]	0.38	2.64 ± 0.04	0.41	1.23 ± 0.12	2.15	11.87	15.20	0.33	14.6 ± 0.2	18.7 ± 2.9	> 250	0.32	–
O=[N+]([O-])c1ccc2nc(NC(P(=O)(O)O)P(=O)(O)O)sc2c1 [Compound 4, (6-nitrobenzo[d]thiazol-2-amino)methyl-1,1-bisphosphonic acid]	0.33	4.5 ± 0.5	0.35	2.25 ± 0.15	2.00	4.00	3.42	0.31	9 ± 0.4	7.7 ± 1.1	> 250	0.32	–
O=C(Nc1ccc2nc(NC(P(=O)(O)O)P(=O)(O)O)sc2c1)c1ccccc1 [Compound 5, (6-benzamidobenzo[d]thiazol-2-amino)methyl-1,1-bisphosphonic acid]	0.29	1.16 ± 0.18	0.30	0.67 ± 0.025	1.73	13.43	9.40	0.25	9 ± 0.3	6.3 ± 0.9	> 250	0.25	7.76
O=C(Nc1ccc2nc(NC(P(=O)(O)O)P(=O)(O)O)sc2c1)c1ccc(Br)cc1 [Compound 6, (6-(4-bromobenzamido)benzo[d]thiazol-2-amino)methyl-1,1-bisphosphonic acid]	0.22	13.8 ± 0.9	0.24	6.7 ± 0.5	2.06	8.96	>14.92	0.19	60 ± 2.6	> 100	> 250	–	–
O=C(Nc1ccc2nc(NC(P(=O)(O)O)P(=O)(O)O)sc2c1)c1ccc([N+](=O)[O-])cc1 [Compound 7, (6-(4-nitrobenzamido)benzo[d]thiazol-2-amino)methyl-1,1-bisphosphonic acid]	0.27	0.98 ± 0.16	0.28	0.5 ± 0.01	1.96	13.40	10.80	0.23	6.7 ± 0.8	5.4 ± 1.1	> 250	0.23	6.84
O=C(Cc1ccccc1)Nc1ccc2nc(NC(P(=O)(O)O)P(=O)(O)O)sc2c1 [Compound 8, (6-(2-phenylacetamido)benzo[d]thiazol-2-amino)methyl-1,1-bisphosphonic acid]	0.27	2.4 ± 0.5	0.24	9.3 ± 0.7	0.26	1.16	2.37	0.23	10.8 ± 3.1	22 ± 8	> 250	0.22	–
O=C(Nc1ccccc1)Nc1ccc2nc(NC(P(=O)(O)O)P(=O)(O)O)sc2c1 [Compound 9, (6-(3-phenylureido)benzo[d]thiazol-2-amino)methyl-1,1-bisphosphonic acid]	0.26	3 ± 0.4	0.23	11.5 ± 1.9	0.26	1.30	1.18	0.23	15 ± 5	13.6 ± 1.4	> 250	0.23	–
O=C1c2ccccc2C(=O)N1c1ccc2nc(NC(P(=O)(O)O)P(=O)(O)O)sc2c1 [Compound 10, (6-(1,3-dioxoisoindolin-2-yl)benzo[d]thiazol-2-amino)methyl-1,1-bisphosphonic acid]	0.26	1.69 ± 0.08	0.23	10.9 ± 2.4	0.16	1.10	0.50	0.23	12 ± 0.4	5.4 ± 1.6	> 250	0.24	–
CC(N)C(=O)Nc1ccc2nc(NC(P(=O)(O)O)P(=O)(O)O)sc2c1 (stereo not shown) [Compound 11]	0.28	9.4 ± 2	0.23	61.9 ± 1.3	0.15	0.87	>1.62	0.23	54 ± 6	> 100	> 250	–	–
O=P(O)(O)C(CNc1nc2ccc(Cl)cc2s1)P(=O)(O)O [Compound 12, (6-chlorobenzo[d]thiazol-2-amino)ethyl-1,1-bisphosphonic acid]	0.35	4.7 ± 1.1	0.40	0.82 ± 0.06	5.73	25.98	44.63	0.31	21.3 ± 1.7	36.6 ± 1.8	> 250	0.29	–
